Where two headings read alike, the source gives them in different places.
What was measured:
[1] = system: CAK1-1; test: NCI 60 cell line screen, sulforhodamine B, 48 h; assay type: cell-based, human; details: CAK1-1, Renal Cancer
Description: (§1) A detailed description of the screening procedure can be found at hypertext transfer protocol (http://) “dtp.nci.nih.gov/branches/btb/ivclsp.html.”
(§2) In brief, each of the 60 human tumor cell lines were grown in RPMI 1640 medium, supplemented with 5% fetal bovine serum and 2 mM L-glutamine. Cells were plated at their appropriate density in 96-well microtiter plates and incubated at 37° C., 5% CO2, 95% air and 100% relative humidity. […] Cells were incubated for an additional 48 hours and a sulforhodamine B protein assay was used to estimate cell viability or growth.

[2] = system: SF-539; test: NCI 60 cell line screen, sulforhodamine B, 48 h; assay type: cell-based, human; details: SF-539, CNS Cancer
Description: as §1, §2

[3] = system: LOX IMVI; test: NCI 60 cell line screen, sulforhodamine B, 48 h; assay type: cell-based, human; details: Melanoma
Description: as §1, §2

[4] = system: MDA-N; test: NCI 60 cell line screen, sulforhodamine B, 48 h; assay type: cell-based, human; details: Breast Cancer
Description: as §1, §2

[5] = system: SK-MEL-21; test: NCI 60 cell line screen, sulforhodamine B, 48 h; assay type: cell-based, human; details: for CC50: Homo sapiens
Description: as §1, §2

[6] = system: EKVX; test: NCI 60 cell line screen, sulforhodamine B, 48 h; assay type: cell-based, human; details: Non-Small Cell Lung Cancer
Description: as §1, §2

[7] = system: HDP-92; test: NCI 60 cell line screen, sulforhodamine B, 48 h; assay type: cell-based, human
Description: as §1, §2

[8] = system: U251; test: NCI 60 cell line screen, sulforhodamine B, 48 h; assay type: cell-based, human; details: U251, CNS Cancer
Description: as §1, §2

[9] = system: OVCAR-5; test: NCI 60 cell line screen, sulforhodamine B, 48 h; assay type: cell-based, human; details: OVCAR-5, Ovarian Cancer
Description: as §1, §2

[10] = system: HDP-62; test: NCI 60 cell line screen, sulforhodamine B, 48 h; assay type: cell-based, human; details: HDP-62, Non-Small Cell Lung Cancer
Description: as §1, §2

[11] = system: SF-268; test: NCI 60 cell line screen, sulforhodamine B, 48 h; assay type: cell-based, human; details: SF-268, CNS Cancer
Description: as §1, §2

[12] = system: SF-295; test: NCI 60 cell line screen, sulforhodamine B, 48 h; assay type: cell-based, human; details: SF-295, CNS Cancer
Description: as §1, §2

[13] = system: MALME-3M; test: NCI 60 cell line screen, sulforhodamine B, 48 h; assay type: cell-based, human; details: Melanoma
Description: as §1, §2

[14] = system: UO-11; test: NCI 60 cell line screen, sulforhodamine B, 48 h; assay type: cell-based, human
Description: as §1, §2

[15] = system: ACHN; test: NCI 60 cell line screen, sulforhodamine B, 48 h; assay type: cell-based, human; details: Renal Cancer
Description: as §1, §2

[16] = system: NCI-H522; test: NCI 60 cell line screen, sulforhodamine B, 48 h; assay type: cell-based, human; details: NCI-H522, Non-Small Cell Lung Cancer
Description: as §1, §2

[17] = system: MCF7; test: NCI 60 cell line screen, sulforhodamine B, 48 h; assay type: cell-based, human; details: MCF7, Breast Cancer
Description: as §1, §2

[18] = system: DU-145; test: NCI 60 cell line screen, sulforhodamine B, 48 h; assay type: cell-based, human
Description: as §1, §2

[19] = system: TK-10; test: NCI 60 cell line screen, sulforhodamine B, 48 h; assay type: cell-based, human; details: TK-10, Renal Cancer
Description: as §1, §2

[20] = system: OVCAR-3; test: NCI 60 cell line screen, sulforhodamine B, 48 h; assay type: cell-based, human; details: OVCAR-3, Ovarian Cancer
Description: as §1, §2

[21] = system: LeTx-induced cytotoxicity of RAW264.7 cells; test: cells; assay type: cell-based, murine
[22] = system: Caspase-3 activity in Jurkat cells; test: Caspase-3 activity assay (EnzChek); assay type: cell-based, human; details: EC50 concentration, 19 hours
Description: Jurkat cells were plated at 2×10^6 cells/3 mL per well in a 6-well plate and incubated at 37° C., 5% (v/v) CO2 and 95% (v/v) humidity. […] Bhalla, et al., Blood 82:3133 (1993). […] Cells treated with 0.25% DMSO served as the negative control. The cells were collected by centrifugation and the media removed. Cell pellets were processed for the Caspase-3 activity assay as described in the manufacturer's protocol (EnzChek Caspase-3 Assay Kit from Molecular Probes (E-13183; see Appendix G, which form a part of this application and is also available at hypertext transfer protocol on the worldwide web at “probes.com/media/pis/mp13183.pdf.”. In brief, cell pellets were lysed on ice, mixed with the EnzChek Caspase-3 components in a 96-well plate, and then incubated in the dark for 30 minutes prior to reading fluorescence of cleaved benzyloxycarbonyl-DEVD-AMC using a Packard Fusion with λex=485 nm and λem=530 nm filters. Protein concentrations for lysates were determined using the BCA Protein Assay Kit (Pierce) and these values were used for normalization.

[23] = system: p21 and p27 in HEK293 cells and HEK293 NF-κB/Luciferase reporter clone; test: Western blot of cell cycle regulatory proteins; assay type: cell-based, human; details: various concentrations, preliminary results
Excerpt: The ubiquitin-proteasome pathway is an essential proteolytic system involved in cell cycle control by regulating the degradation of cyclins and cyclin-dependent kinase (Cdk) inhibitors such as p21 and p27. Pagano, et al., Science 269:682 (1995), Kisselev, et al., Chem Biol 8:739 (2001), King, et al., Science 274:1652 (1996). Furthermore, p21 and p27 protein levels are increased in the presence of proteasome inhibitors. Fukuchi, et al., Biochim Biophys Acta 1451:206 (1999), Takeuchi, et al., Jpn J Cancer Res 93:774 (2002).
The Western blots presented in FIG. 33 were reprobed using antibodies against p21 and p27 to determine the endogenous level of each protein and anti-Tubulin antibody was used to confirm equal loading of protein.

[24] = HDP-92, Non-Small Cell Lung Cancer
[25] = Homo sapiens, 60 cell, read-out: Log10 LC50 (converted)

C[C@@]12OC(=O)[C@]1([C@@H](O)[C@@H]1C=CCCC1)NC(=O)[C@@H]2CCCl [Formula II-16, Salinosporamide A] was tested, and the “Log10 G150” value [1] was under -8.00 Molar, the “Log10 TGI” value [1] was over -4.00 Molar and the “Log10 G150” value [2] was under -8.00 Molar. The “Log10 TGI” value [2] was under -8.00 Molar, the “Log10 G150” value [3] was under -8.00 Molar and the “Log10 TGI” value [3] was -7.87 Molar. For the same compound, the “Log10 G150” value [4] was under -8.00 Molar, the “Log10 TGI” value [4] was under -8.00 Molar and the CC50 ([5]; 60 cell, read-out: Log10 LC50 (converted)) was under 10 nM. The CC50 ([5]; SK-MEL-28, read-out: LC50) was under 10 nM, the “Log10 G150” value ([5]; SK-MEL-21, Melanoma) was under -8.00 Molar and the “Log10 TGI” value ([5]; SK-MEL-21, Melanoma) was under -8.00 Molar. The “Log10 G150” value [6] was under -8.00 Molar, the “Log10 TGI” value [6] was -5.67 Molar and the “Log10 G150” value [7, 24] was under -8.00 Molar. For the same compound, the “Log10 TGI” value [7, 24] was -7.77 Molar, the CC50 [7, 25] was 4370 nM and the “Log10 G150” value [8] was under -8.00 Molar. The “Log10 TGI” value [8] was -5.99 Molar, the “Log10 G150” value [9] was under -8.00 Molar and the “Log10 TGI” value [9] was -7.28 Molar. The “Log10 G150” value [10] was under -8.00 Molar, the “Log10 TGI” value [10] was -4.89 Molar and the “Log10 G150” value [11] was under -8.00 Molar. The “Log10 TGI” value [11] was -6.92 Molar, the “Log10 G150” value [12] was under -8.00 Molar and the “Log10 TGI” value [12] was under -8.00 Molar. For the same compound, the “Log10 G150” value [13] was under -8.00 Molar, the “Log10 TGI” value [13] was under -8.00 Molar and the CC50 [14, 25] was 25700 nM. The “Log10 G150” value ([14]; UO-11, Renal Cancer) was under -8.00 Molar, the “Log10 TGI” value ([14]; UO-11, Renal Cancer) was -5.83 Molar and the “Log10 G150” value [15] was under -8.00 Molar. The “Log10 TGI” value [15] was -5.27 Molar, the “Log10 G150” value [16] was under -8.00 Molar and the “Log10 TGI” value [16] was under -8.00 Molar. The “Log10 G150” value [17] was under -8.00 Molar, the “Log10 TGI” value [17] was over -4.00 Molar and the “Log10 G150” value ([18]; DU-145, Prostate Cancer) was under -8.00 Molar. The “Log10 TGI” value ([18]; DU-145, Prostate Cancer) was over -4.00 Molar, the CC50 ([18]; Homo sapiens, DU-145, read-out: Log10 LC50 (converted)) was over 100000 nM and the “Log10 G150” value [19] was under -8.00 Molar. The “Log10 TGI” value [19] was -7.13 Molar, the “Log10 G150” value [20] was under -8.00 Molar and the “Log10 TGI” value [20] was -4.83 Molar. The EC50 [21] was 3.6 nM, the cell-viability [21] was 82% and the “increase in the viability of LeTx-treated cells compared to LeTx treatment alone” value [21] was 10 fold. The EC50 ([21]; Mus musculus, RAW264.7) was under 4 nM, the Caspase-3 activity [22] was “activation of Caspase-3” and the “p21 and p27 protein levels” value [23] was “p21 and p27 protein levels were elevated”.

From patent publication US7572606B1 (Nereus Pharmaceuticals, Inc., priority 2005, dated 2009)
